Assay results: PMC7794297
Several values for one entry are separate records, joined by “and”; a condition that tells them apart may be missing. Identical values can stand only once. Like-named read-outs stand apart in the source and are kept apart here.

Assays:
[1] = target: T1, scrambled RNase A (Bos taurus, UniProt P61823); assay: Folding of scrambled RNase A at pH 5.4 (cCMP hydrolysis); conditions: in <2 h
T1 sequence (P61823 27-150): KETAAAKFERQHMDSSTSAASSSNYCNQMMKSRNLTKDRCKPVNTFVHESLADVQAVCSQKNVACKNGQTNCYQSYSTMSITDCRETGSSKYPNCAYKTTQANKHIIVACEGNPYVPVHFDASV

[2] = Slow DCL system of building blocks 5-8, equilibration by HPLC-MS; conditions: slow DCL 5-8; 5% mol (18.3 μM); 20% (v/v) DMSO, pH 7.8, 6 °C; control 192 h
Experimental: To broaden the scope of selenocystine we tested this catalyst in a slow disulfide-exchange system. The DCL comprised 4 building blocks (5–8)[37], three of them being aliphatic thiols with pKa values around 9 to slow down the exchange reaction (Fig. 7a). Due to solubility issues, a 20% (v/v) DMSO was added and the reaction mixture was diluted. […] The different oligomers were identified by HPLC-MS (Supplementary Figs. 21–30).
Control DCL. […] The DCLs were analyzed until stabilization.

[3] = Spermine-templated DCL of building blocks 2 and 3; conditions: two building blocks DCL with spermine; 5% (mol); control 96 h
Experimental: (§1) Building blocks 2 and 3 equipped with carboxylate moieties to establish interactions with the protonated amine groups of the spermine were allowed to equilibrate at pH 7.8 and 6 °C (Fig. 8a). As expected in our control experiment, the major component in the absence of spermine was the linear tetramer (2)2(3)2. After the addition of spermine, the linear tetramer “decomposed” in order to form mainly the cyclic tetramer of (2)4, and the (3)2 dimer (Fig. 8a). As it was reported, several studies determined that the spermine was threaded through the macrocycle fixing the configuration to a highly symmetric stereoisomer of (2)4[36]. […] The precise composition of the DCL (with and without spermine), was assessed by measuring the relative peak area (RPA). Indeed, the normalized change of RPA was used to quantify the spermine influence in the outcome (Supplementary Fig. 42)[46]. The same template (spermine) was tested in our reference DCL of four building blocks (1–4) in the absence and presence of Secox (Fig. 8b). […] Additionally, two different templates were tested to confirm the absence of conflict between selenocystine and the templating effect. Spermidine and NADPH were introduced in our 4 building blocks DCL (1–4) in the absence and presence of Secox, leading to the amplification of different species and getting the same results as the non-catalyzed DCLs (Supplementary Figs. 44, 45, Supplementary Tables 7–10, and Supplementary Methods).
The DCL was stabilized at 96 h. […] The mixture was stabilized after 24 h. […] The DCL was stabilized at 96 h. […] The DCL was analyzed in 96 h after equilibration. DCLs were performed without stirring at 6 °C and analyzed by HPLC-MS.

[4] = Equilibration of the thiol-disulfide DCL of building blocks 1-4 followed by HPLC-MS
Experimental: DMSO percentage is 2.5% v/v. […] DCLs were analyzed by HPLC-MS until equilibration without stirring at 6 °C.
Control DCL. […] DMSO percentage is 2.5% v/v. Regarding Secox catalyzed DCL, different stocks of Secox were carried out in order to study the percentages of Secox. […] The DCLs were prepared at 6 °C without stirring and analyzed in several hours until the complete stabilization.

[5] = target: T1, scrambled RNase A; assay: Folding of scrambled RNase A at pH 7.8 (cCMP hydrolysis); conditions: for V0: Secox / GSH 1 mM/5 mM
[6] = Spermine-templated DCL of building blocks 1-4; conditions: four building blocks DCL with spermine; 5% mol
Experimental: as §1
The mixture was stabilized in 96 h. […] The mixture was stabilized after 24 h. […] It was stabilized in 24 h. […] DCL was equilibrated in 96 h. DCLs were performed without stirring at 6 °C and analyzed by HPLC-MS.

[7] = for Kobs: 2.5% (v/v) DMSO, 190 μM 3, Tris pH 7.8, 6 °C
[8] = target: glucose oxidase (GOx) (Aspergillus niger, UniProt P13006); assay: GOx tolerance to Secox, Trp emission fluorescence; design: purchased Sigma Aldrich
Chain of glucose oxidase (GOx) (P13006 17-605): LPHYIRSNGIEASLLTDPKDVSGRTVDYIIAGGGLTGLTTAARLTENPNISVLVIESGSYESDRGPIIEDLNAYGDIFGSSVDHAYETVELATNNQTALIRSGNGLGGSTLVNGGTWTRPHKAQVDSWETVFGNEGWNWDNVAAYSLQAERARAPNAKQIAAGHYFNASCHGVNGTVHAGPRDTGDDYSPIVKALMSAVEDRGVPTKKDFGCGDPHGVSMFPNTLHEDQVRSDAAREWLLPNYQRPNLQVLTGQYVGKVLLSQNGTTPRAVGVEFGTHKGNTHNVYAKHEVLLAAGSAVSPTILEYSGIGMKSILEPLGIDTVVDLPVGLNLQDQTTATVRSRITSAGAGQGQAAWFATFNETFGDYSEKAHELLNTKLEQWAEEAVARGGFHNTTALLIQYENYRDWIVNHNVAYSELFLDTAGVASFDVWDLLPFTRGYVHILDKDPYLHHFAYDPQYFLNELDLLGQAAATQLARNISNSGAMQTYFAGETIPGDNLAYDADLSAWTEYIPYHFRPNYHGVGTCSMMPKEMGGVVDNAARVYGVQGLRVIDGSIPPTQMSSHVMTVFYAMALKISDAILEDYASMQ

N[C@@H](C[Se][Se]C[C@H](N)C(=O)O)C(=O)O [Secox, selenocystine]
yield of native RNase A [1]: 75% | DCL equilibration time [2]: 60 h | DCL equilibration time [3]: 24 h | DCL equilibration time ([4]; 190 μM as fifth building block, Tris 20 mM pH 7.8, 6 °C, control 4 days): 24 h | DCL equilibration time ([4]; 1% mol (5.7 μM), pH 7.8, 6 °C, control 96 h): 72 h | DCL equilibration time ([4]; 2.5% mol (14.25 μM), pH 7.8, 6 °C, control 96 h): 48 h | DCL equilibration time ([4]; 5% mol (28.5 μM), pH 7.8, 6 °C, control 96 h): 24 h | DCL equilibration time ([4]; 10% mol (57 μM), pH 7.8, 6 °C, control 96 h): 24 h | effect on scrambled RNase A folding ([5]; 20 mM Secox / 100 mM GSH, pH 7.8): partial inactivation of the protein | V0 ([5]; 33 min): 73.3333 min⁻¹ | V0 ([5]; 65 min): 91.6667 min⁻¹ | V0 ([5]; 95 min): 91.6667 min⁻¹ | V0 ([5]; 123 min): 100 min⁻¹ | V0 ([5]; 188 min): 101.667 min⁻¹ | V0 ([5]; 232 min): 98.3333 min⁻¹ | V0 ([5]; 356 min): 105 min⁻¹ | V0 ([5]; 1440 min): 101.667 min⁻¹ | yield of the correctly folded enzyme ([5]; pH 7.8, 1 mM Secox/5 mM GSH, first 65 min): 92% | increase of refolding rate by replacing GSSG with Secox ([5]; scrambled RNase A): five times | DCL equilibration time [6]: 24 h | Kobs ([7]; 1% (mol)): 0.091 ± 0.002 M⁻¹ s⁻¹ | time until total completion of homodimerization ([7]; 1% mol): 3 days | time until total completion of homodimerization ([7]; 2.5% mol): 2 days | Kobs ([7]; 5% (mol) catalyst, uncatalyzed 0.014 ± 0.001): 0.259 ± 0.009 M⁻¹ s⁻¹ | acceleration over the uncatalyzed reaction ([7]; 5% Secox): 18 fold | time until total completion of homodimerization ([7]; 5% mol): 0.917 days and 1 days | time until total completion of homodimerization ([7]; 10% mol): 0.75 days | Wavelenght (nm) of GOx Trp fluorescence emission (Supplementary Figure 47 b) ([8]; 1 % Secox): 329 nm | Wavelenght (nm) of GOx Trp fluorescence emission (Supplementary Figure 47 b) ([8]; 2.5 % Secox): 329 nm | Wavelenght (nm) of GOx Trp fluorescence emission (Supplementary Figure 47 b) ([8]; 5% Secox): 329 nm | Wavelenght (nm) of GOx Trp fluorescence emission (Supplementary Figure 47 b) ([8]; 7.5 % Secox): 329 nm | Wavelenght (nm) of GOx Trp fluorescence emission (Supplementary Figure 47 b) ([8]; 10 % Secox): 329 nm | Wavelenght (nm) of GOx Trp fluorescence emission (Supplementary Figure 47 b) ([8]; 30 % Secox): 329 nm | Wavelenght (nm) of GOx Trp fluorescence emission (Supplementary Figure 47 b) ([8]; 50 % Secox): 329 nm | Wavelenght (nm) of GOx Trp fluorescence emission (Supplementary Figure 47 b) ([8]; 100 % Secox): 329 nm | effect on GOx stability (Trp emission maximum) ([8]; whole range of concentrations measured, up to 100 % mol): No shift was observed
